Experiment [1] in a line: alpha-synuclein stem-loop luciferase translation blockers – H4 neuroglioma cells, luminescence, confirmation (AID 1988). The format is functional, cell-based.
Experiment [2] has as its target Voltage-gated N-type calcium channel alpha-1B subunit/Amyloid beta A4 precursor protein-binding family A member 1 (Homo sapiens, UniProt Q00975+Q02410). It is filed as protein assay.
The target in experiment [3] is T1, Tyrosine-protein phosphatase non-receptor type 7 (Homo sapiens, UniProt P35236).
T1 sequence (P35236 whole entry): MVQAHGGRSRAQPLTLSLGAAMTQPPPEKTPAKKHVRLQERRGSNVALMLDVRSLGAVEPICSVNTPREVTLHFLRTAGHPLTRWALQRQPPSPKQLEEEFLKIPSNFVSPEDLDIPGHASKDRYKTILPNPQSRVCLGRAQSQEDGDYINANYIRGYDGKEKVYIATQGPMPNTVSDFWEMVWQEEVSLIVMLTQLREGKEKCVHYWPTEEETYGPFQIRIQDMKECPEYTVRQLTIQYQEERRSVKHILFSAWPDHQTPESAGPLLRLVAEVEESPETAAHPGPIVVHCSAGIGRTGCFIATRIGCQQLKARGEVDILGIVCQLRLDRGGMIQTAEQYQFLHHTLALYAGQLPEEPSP
Description: inhibition of hematopoietic tyrosine phosphatase HePTP – biochemical, set 2, SAR follow-up (AID 449736). The format is functional.

Experiment [4] concerns the target T2, Tyrosine-protein phosphatase non-receptor type 22 (Homo sapiens, UniProt Q9Y2R2).
T2 sequence (Q9Y2R2 whole entry): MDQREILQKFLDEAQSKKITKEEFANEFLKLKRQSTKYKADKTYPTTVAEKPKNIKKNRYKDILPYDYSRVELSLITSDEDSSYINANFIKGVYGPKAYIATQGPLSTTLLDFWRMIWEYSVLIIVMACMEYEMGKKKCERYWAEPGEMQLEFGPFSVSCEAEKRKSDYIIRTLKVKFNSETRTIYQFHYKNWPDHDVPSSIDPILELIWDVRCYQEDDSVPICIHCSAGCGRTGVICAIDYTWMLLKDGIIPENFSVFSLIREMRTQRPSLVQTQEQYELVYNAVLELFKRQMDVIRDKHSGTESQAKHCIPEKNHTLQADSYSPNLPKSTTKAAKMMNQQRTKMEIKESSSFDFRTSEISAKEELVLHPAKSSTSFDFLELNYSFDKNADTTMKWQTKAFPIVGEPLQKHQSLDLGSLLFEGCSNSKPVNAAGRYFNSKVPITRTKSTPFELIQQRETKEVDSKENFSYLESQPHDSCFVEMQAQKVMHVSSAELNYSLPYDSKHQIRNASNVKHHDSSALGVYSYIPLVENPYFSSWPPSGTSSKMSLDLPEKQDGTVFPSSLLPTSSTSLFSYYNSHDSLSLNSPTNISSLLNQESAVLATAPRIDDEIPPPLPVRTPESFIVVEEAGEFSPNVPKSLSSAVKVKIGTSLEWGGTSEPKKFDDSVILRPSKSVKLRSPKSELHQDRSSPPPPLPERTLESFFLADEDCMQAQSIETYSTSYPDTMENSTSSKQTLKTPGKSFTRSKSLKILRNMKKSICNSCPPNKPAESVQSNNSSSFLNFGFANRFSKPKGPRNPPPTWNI
The experiment is described as follows: SAR LYP1 Fluorescent Assay using OMFP substrate for In Vitro dose response studies - Set 3. [Related pubchem assays (depositor defined):AID1779, AID1784, AID2140, AID2686]. The format is functional.

Experiment [5] deals with T2, Tyrosine-protein phosphatase non-receptor type 22. The experiment is described as follows: SAR LYP1 Fluorescent Assay using OMFP substrate for In Vitro dose response studies - Set 2. [Related pubchem assays (depositor defined):AID1779, AID1784, AID2140, AID449726, AID488869]. The format is functional.
Experiment [6] shares this target. The experiment is described as follows: SAR LYP1 Fluorescent Assay using OMFP substrate for In Vitro dose response studies - Set 4. [Related pubchem assays (depositor defined):AID1779, AID1784, AID2140, AID2686]. It is filed as functional.
For experiment [7], the target named is Cytochrome P450 2C19 (Homo sapiens, UniProt P33261). Description: Cytochrome panel assay with activity outcomes. Panel member name: p450-cyp2c19 Compounds with AC50 equal or less than 10 uM are considered active. The format is functional. The settings on record: read-out: AC50.
Experiment [8] has as its system BJ. Description: BJ-TERT fibroblast viability loss – cell-based, RAS-independent, luminescence, dose response (AID 1933). The settings on record: Homo sapiens. It is filed as functional.
For experiment [9], the target named is T3, Apoptotic protease-activating factor 1 (Homo sapiens, UniProt O14727).
T3 sequence (O14727 whole entry): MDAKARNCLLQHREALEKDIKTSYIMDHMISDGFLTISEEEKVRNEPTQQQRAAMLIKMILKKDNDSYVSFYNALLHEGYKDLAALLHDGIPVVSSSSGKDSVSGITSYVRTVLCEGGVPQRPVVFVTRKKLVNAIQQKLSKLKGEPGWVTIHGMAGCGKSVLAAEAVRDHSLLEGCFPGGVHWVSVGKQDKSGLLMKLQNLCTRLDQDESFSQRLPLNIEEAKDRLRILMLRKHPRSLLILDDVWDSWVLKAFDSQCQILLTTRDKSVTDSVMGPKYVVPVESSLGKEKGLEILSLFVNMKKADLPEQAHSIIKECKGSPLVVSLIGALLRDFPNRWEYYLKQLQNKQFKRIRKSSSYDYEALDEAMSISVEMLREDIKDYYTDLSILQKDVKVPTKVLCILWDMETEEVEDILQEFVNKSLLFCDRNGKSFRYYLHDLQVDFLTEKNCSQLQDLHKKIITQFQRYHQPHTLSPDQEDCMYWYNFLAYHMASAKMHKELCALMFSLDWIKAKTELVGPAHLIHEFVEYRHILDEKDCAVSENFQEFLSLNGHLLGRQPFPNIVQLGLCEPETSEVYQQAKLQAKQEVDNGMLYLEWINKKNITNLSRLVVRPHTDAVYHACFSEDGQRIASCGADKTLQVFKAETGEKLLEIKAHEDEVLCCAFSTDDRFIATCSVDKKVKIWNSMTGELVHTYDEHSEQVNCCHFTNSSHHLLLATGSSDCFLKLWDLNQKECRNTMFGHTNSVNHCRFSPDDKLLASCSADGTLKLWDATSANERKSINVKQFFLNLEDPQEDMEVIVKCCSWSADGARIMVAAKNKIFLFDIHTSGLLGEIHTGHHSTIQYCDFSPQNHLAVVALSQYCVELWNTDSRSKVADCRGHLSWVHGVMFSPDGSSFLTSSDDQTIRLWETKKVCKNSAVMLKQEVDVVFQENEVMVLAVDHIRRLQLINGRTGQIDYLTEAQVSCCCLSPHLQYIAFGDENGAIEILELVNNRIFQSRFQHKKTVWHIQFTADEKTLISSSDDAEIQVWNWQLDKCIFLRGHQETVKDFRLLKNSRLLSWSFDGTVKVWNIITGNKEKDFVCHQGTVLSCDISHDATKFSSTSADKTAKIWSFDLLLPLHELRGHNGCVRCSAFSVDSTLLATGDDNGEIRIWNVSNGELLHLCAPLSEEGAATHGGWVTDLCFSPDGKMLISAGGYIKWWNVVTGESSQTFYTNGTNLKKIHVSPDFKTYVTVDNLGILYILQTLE
Description: activation of Apaf-1 mediated apoptosis – fluorescent, uHTS hits, dose response (AID 588554). The format is functional.

One may read the EC50 as the concentration that produces a half-maximal response. As a reminder, the IC50 is the concentration that inhibits the measured activity by half. The AC50 is the midpoint of the concentration-response curve, whichever way the signal moves.

The source made the active and inactive calls.

Cytochrome P450 2C19, sequence (P33261 whole entry): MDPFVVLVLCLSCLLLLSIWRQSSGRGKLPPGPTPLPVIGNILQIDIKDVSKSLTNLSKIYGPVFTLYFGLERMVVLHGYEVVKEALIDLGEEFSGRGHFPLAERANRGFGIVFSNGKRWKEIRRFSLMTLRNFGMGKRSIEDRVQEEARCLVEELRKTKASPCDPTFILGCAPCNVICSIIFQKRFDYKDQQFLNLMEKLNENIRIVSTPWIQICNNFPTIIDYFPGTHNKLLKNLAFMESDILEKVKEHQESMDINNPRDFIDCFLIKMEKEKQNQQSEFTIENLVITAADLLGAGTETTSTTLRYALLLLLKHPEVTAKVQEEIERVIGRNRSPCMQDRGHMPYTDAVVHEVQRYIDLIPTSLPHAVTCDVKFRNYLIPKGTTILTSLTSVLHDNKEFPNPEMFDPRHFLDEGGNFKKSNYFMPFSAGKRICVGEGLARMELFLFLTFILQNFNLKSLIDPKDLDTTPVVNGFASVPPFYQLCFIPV
Voltage-gated N-type calcium channel alpha-1B subunit/Amyloid beta A4 precursor protein-binding family A member 1, sequence (Q00975 whole entry): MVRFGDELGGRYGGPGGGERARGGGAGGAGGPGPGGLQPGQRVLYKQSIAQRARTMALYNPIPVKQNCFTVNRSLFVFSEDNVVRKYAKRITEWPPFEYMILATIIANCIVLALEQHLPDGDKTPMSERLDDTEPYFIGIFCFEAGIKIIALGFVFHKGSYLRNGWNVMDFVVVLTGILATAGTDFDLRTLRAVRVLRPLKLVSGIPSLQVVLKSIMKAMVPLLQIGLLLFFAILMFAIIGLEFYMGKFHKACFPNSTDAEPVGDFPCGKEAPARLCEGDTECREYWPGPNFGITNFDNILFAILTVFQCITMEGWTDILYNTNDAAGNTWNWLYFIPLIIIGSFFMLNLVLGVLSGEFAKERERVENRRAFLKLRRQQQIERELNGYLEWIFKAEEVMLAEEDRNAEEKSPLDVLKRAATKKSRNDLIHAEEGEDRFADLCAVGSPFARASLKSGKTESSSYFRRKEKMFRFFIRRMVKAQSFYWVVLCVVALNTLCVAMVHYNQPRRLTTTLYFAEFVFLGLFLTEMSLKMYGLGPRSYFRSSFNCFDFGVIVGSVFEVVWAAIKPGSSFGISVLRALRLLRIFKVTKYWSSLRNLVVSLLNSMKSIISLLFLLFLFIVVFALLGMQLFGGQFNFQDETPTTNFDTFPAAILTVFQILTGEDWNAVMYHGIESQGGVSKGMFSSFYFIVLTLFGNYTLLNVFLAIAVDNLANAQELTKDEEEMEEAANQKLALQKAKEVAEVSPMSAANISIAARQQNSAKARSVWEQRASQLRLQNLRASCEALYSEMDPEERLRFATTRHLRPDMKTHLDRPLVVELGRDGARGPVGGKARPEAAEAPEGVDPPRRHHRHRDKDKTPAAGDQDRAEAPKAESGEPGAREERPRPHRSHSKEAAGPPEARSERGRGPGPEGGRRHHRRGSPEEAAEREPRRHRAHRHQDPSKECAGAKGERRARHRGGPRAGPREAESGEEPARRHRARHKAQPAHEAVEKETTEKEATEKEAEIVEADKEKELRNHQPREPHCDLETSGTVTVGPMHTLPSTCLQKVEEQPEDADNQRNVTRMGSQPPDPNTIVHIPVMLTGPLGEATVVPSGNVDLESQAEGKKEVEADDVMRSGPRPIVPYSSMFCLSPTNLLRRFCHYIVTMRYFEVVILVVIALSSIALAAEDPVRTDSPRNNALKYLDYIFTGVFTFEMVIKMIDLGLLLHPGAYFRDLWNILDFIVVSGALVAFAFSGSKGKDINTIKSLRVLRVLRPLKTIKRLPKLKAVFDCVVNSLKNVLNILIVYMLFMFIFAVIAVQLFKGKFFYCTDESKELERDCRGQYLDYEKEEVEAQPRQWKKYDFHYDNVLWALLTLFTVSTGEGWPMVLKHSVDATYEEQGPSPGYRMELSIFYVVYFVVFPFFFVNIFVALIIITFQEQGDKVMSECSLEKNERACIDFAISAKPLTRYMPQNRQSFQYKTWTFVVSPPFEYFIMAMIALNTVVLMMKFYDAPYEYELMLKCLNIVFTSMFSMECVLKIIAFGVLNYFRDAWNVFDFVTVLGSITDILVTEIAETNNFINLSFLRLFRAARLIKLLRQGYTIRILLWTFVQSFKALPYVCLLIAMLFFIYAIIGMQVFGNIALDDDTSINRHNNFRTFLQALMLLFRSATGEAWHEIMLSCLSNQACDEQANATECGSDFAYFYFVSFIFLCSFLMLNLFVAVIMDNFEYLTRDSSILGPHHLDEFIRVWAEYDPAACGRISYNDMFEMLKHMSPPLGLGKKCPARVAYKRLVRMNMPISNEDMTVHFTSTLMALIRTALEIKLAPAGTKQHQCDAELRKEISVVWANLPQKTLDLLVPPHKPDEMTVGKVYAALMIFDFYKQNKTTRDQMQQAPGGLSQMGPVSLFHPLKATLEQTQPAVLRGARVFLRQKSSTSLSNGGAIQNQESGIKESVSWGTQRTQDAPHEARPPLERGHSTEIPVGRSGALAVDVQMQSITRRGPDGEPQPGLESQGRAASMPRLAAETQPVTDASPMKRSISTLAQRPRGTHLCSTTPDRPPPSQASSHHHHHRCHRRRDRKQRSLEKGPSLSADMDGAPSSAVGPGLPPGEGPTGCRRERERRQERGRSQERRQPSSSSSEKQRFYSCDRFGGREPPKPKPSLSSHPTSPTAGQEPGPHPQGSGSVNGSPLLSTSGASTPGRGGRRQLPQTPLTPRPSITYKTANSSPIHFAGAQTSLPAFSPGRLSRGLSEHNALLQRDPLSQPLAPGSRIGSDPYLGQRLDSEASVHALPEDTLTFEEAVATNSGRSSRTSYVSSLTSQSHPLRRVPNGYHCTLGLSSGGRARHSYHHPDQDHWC
Voltage-gated N-type calcium channel alpha-1B subunit/Amyloid beta A4 precursor protein-binding family A member 1, sequence (Q02410 whole entry): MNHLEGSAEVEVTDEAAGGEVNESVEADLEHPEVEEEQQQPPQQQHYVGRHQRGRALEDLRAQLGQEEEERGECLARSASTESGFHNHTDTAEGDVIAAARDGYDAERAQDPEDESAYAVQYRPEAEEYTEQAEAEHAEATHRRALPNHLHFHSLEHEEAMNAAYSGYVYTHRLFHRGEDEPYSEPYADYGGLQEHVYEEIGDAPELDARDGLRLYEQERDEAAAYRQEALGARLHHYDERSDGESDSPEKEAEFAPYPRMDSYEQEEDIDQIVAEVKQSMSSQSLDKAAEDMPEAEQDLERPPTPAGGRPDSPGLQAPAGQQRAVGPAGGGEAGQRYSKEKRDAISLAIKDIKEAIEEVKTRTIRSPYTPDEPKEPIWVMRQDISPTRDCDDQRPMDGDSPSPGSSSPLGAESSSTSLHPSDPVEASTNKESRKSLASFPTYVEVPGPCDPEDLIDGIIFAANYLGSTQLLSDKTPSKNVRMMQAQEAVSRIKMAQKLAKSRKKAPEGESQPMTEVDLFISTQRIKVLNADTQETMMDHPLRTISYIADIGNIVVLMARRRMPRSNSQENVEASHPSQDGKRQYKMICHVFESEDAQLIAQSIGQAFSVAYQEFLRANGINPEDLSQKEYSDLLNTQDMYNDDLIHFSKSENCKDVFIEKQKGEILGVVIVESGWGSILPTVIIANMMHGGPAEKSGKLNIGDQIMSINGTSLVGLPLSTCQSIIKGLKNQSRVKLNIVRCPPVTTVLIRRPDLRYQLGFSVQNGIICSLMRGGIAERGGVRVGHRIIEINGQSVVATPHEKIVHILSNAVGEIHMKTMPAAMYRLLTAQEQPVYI

As for `Cc1oc2c(c1C(=O)c1ccccc1)C(=O)C(=O)c1ccccc1-2`, in [1], the EC50 was 8930 nM (active).

Consider `O=C(O)COc1ccc(/C=N/NC(=O)c2ccc(-c3csc(Nc4ccc(Cl)cc4)n3)cc2)cc1`, for which the half-inhibitory concentration (IC50) in experiment [2] was 10100 nM (active); in experiment [3], 193 nM (active); in experiment [4], 626 nM (active); in experiment [5] it was 1240 nM (active); in experiment [6], 1470 nM (active).

Take `COc1ccc(C(=O)Nc2nc3c(s2)Cc2cc(OC)ccc2-3)cc1`: in experiment [7], the AC50 is 5010 nM (inconclusive).

Regarding `CCN1/C(=C/c2ccc3cc(C)ccc3[n+]2CC)Sc2cc(C)c(C)cc21`, in experiment [8], the EC50 was 337 nM (inconclusive).

`CSc1ccc(C=NNc2ccc(S(=O)(=O)Nc3ccccc3C(=O)O)cc2[N+](=O)[O-])cc1`: in [9], the EC50 was 8230 nM (active).

The values are drawn from ChEMBL document CHEMBL1201862, “PubChem BioAssay data set” (2004).
